Laboratory results reported in paper PMC7217877, “N-AS-triggered SPMs are direct regulators of microglia in a model of Alzheimer’s disease” (Nature Communications, 2020).
Residue numbers refer to the chain shown, from its start. Values joined by “and” are separate entries in the source; they are usually repeats but may differ in a detail not shown here. Equal entries are not always repeated.

What was measured:
Test in all cases: filter binding assay of [14C] N-AS to COX2
Details in all cases: replicates
COX2 N181A = biological target: T1, COX2 N181A (Homo sapiens, UniProt P35354, N181A)
T1 construct: His (N); made in house
T1 sequence (P35354 18-604 N181A): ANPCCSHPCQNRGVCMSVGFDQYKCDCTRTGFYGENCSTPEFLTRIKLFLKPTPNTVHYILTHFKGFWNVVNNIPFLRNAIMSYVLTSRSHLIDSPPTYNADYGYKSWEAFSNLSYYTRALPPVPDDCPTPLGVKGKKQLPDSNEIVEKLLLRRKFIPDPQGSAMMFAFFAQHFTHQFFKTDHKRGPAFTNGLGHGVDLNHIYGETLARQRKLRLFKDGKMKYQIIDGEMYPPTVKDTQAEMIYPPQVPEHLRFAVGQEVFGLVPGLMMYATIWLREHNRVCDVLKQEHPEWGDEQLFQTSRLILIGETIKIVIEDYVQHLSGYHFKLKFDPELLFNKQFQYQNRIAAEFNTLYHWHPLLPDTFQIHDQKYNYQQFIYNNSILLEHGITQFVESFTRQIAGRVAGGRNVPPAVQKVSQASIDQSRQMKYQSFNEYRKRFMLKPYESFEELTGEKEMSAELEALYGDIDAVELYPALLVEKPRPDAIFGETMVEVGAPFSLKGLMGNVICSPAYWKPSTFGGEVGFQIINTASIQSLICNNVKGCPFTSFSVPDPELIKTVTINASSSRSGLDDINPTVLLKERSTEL
Text: (§1) Single point mutations in SphK1 (R56A, R57A, R24A, R185A, D178A, and F192A) and COX2 (S565A, N181A, T564A, and S567A) were generated using the In-Fusion Cloning Kits (Clontech) and ORF cDNA expression plasmids of human SphK1 and COX2 gene (Sino Biological Inc, HG15679-NH and HG12036-NH), according to the manufacturer’s instructions. The forward and reverse primers described in Supplementary Table 4. The SphK1 WT, SphK1 mutants, COX2 WT, and COX2 mutant plasmids were transformed in the One shot TOP 10 competent cell (Invitrogen). The bacteria were grown in Luria-Bertani (LB, Invitrogen) plates supplemented with 50 μg ml^−1 kanamycin (Sigma-Aldrich) at 37 °C. The bacterial cell pellets were resuspended in lysis buffer containing 20 mM sodium phosphate (GE Healthcare), 500 mM NaCl (GE Healthcare), 20 mM imidazole (pH 7.4) (GE Healthcare), 0.2 mg ml^−1 lysozyme (Sigma-Aldrich), 20 μg ml^−1 DNase I (Roche), 1 mM MgCl2 (Sigma-Aldrich), and 1 mM PMSF (Sigma-Aldrich) before being lysed by sonication and clarified by centrifugation at 15,493×g for 10 min. Proteins were purified from the soluble fraction using His-Spin Trap columns (GE Healthcare) and the binding and acetylation assays were performed.
(§2) Briefly, SphK1 WT and mutant enzymes (1 mU) were resuspended in 100 μl reaction buffer (20 mM HEPES; pH 7.4, 50 mM NaCl, 10 mM MgCl2, 1 mM EGTA, 0.02% Triton-X100, and 100 μM sphingosine, all from Sigma-Aldrich). […] Briefly, COX2 WT and mutant enzymes (1 mU) were resuspended in 100 μl reaction buffer (20 mM HEPES; pH 7.4, 50 mM NaCl, 10 mM MgCl2, 1 mM EGTA, and 0.02% Triton-X100, all from Sigma-Aldrich). Reactions were initiated by adding [^14C] N-AS (1–200 μM (0.1–20 μCi), ARC UK Ltd, ARC-1024) and incubated at 37 °C for 1 h. The reactions were terminated by adding 100 μl of ice-cold reaction buffer containing 5 mM cold N-AS and immediately filtered through P30 filtermat (Perkin-Elmer), followed by five washes.
(§3) The binding velocity was plotted and the Kcat and KM values were calculated from the Michaelis-Menten analysis using the Sigma-plot program (ver 10.0, Systat software Inc.).

COX2 S565A = biological target: T2, COX2 S565A (Homo sapiens, UniProt P35354, S565A)
T2 construct: His (N); made in house
T2 sequence (P35354 18-604 S565A): T1 sequence (P35354 18-604 N181A) with A164N, S548A
Text: as §1, §2, §3

COX2 S567A = biological target: T3, COX2 S567A (Homo sapiens, UniProt P35354, S567A)
T3 construct: His (N); made in house
T3 sequence (P35354 18-604 S567A): T1 sequence (P35354 18-604 N181A) with A164N, S550A
Text: as §1, §2, §3

Compound: CCCCCCCCCCCCC/C=C/[C@@H](O)[C@H](CO)NC(C)=O [N-AS, N-((2S,3R,E)-1,3-Dihydroxyoctadec-4-en-2-yl)acetamide]
- binding velocity (Vbinding) (COX2 N181A; 1 uM): 0.642 nM/min and 0.892 nM/min and 0.879 nM/min
- binding velocity (Vbinding) (COX2 N181A; 5 uM): 7.037 nM/min and 14.518 nM/min and 5.980 nM/min
- binding velocity (Vbinding) (COX2 N181A; 10 uM): 11.465 nM/min and 12.134 nM/min and 6.758 nM/min
- binding velocity (Vbinding) (COX2 N181A; 20 uM): 15.248 nM/min and 14.109 nM/min and 13.356 nM/min
- binding velocity (Vbinding) (COX2 N181A; 100 uM): 24.771 nM/min and 29.019 nM/min and 25.078 nM/min
- binding velocity (Vbinding) (COX2 N181A; 200 uM): 41.872 nM/min and 40.849 nM/min and 37.213 nM/min
- binding velocity (Vbinding) (COX2 S565A; 1 uM): 0.294 nM/min and 0.145 nM/min and 0.375 nM/min
- binding velocity (Vbinding) (COX2 S565A; 5 uM): 4.092 nM/min and 3.850 nM/min and 4.567 nM/min
- binding velocity (Vbinding) (COX2 S565A; 10 uM): 6.171 nM/min and 6.000 nM/min and 6.819 nM/min
- binding velocity (Vbinding) (COX2 S565A; 20 uM): 11.138 nM/min and 12.964 nM/min and 8.904 nM/min
- binding velocity (Vbinding) (COX2 S565A; 100 uM): 19.545 nM/min and 19.934 nM/min and 20.173 nM/min
- binding velocity (Vbinding) (COX2 S565A; 200 uM): 28.985 nM/min and 29.725 nM/min and 29.810 nM/min
- binding velocity (Vbinding) (COX2 S567A; 0.2 uM): 0.844 nM/min and 0.872 nM/min and 0.519 nM/min
- binding velocity (Vbinding) (COX2 S567A; 1 uM): 1.046 nM/min
